Earlier results in US7498130B2, “Method of reducing viral load” (Massachusetts General Hospital, priority 2003, dated 2009).

Tests used:
HIV = conditions: infected cells
[1] = in vivo

Substance: antithrombin III [ATIII]
- lowering HIV viral loads (HIV): inactive
- overall elimination half-life [1]: 18.6 h
